Assay results from ChEMBL document CHEMBL1146759, “Chemo- and stereoselective synthesis of benzocycloheptene and 1-benzoxepin derivatives as alpha-sympathomimetic and anorexigenic agents” (Bioorg Med Chem Lett, 2004).
Active and inactive are the calls of the source. The rule behind the calls is not given here.

Columns and labels:
[1] = Acute toxicity when administered intraperitoneally in mice; format: organism-based; conditions: mouse, in vivo, ip; read-out: ALD50
[2] = Effect on change in blood pressure in […]; no effect; format: functional, organism-based
Mus musculus [3] = assay: Protection against amphetamine toxicity in mice when administered percutaneously; format: functional
Mus musculus [4] = assay: Protection against amphetamine toxicity in mice when administered percutaneously; no effect; format: functional, organism-based
[5] = Effect on change in blood pressure in mice; format: functional
Mus musculus [6] = assay: Effective dose for anorexigenic activity when administered to mice intraperitoneally; no effect; format: functional, organism-based
Mus musculus [7] = assay: Effective dose for anorexigenic activity when administered to mice intraperitoneally; format: functional; conditions: ip

**Q.** Which results are given for `N[C@@H]1CCCc2ccccc2[C@@H]1O`?
**A.** LD50 [1]: 150 mg/kg; Change in blood pressure [2]: inactive; ED50 (Mus musculus [3]): 73 mg/kg

**Q.** For `N[C@H]1CCCc2ccccc2[C@@H]1O`, which LD50 [1] is on record?
**A.** 150 mg/kg

**Q.** And the “Change in blood pressure” value [2]?
**A.** inactive

**Q.** What about the ED50 (Mus musculus [4]) of the same compound?
**A.** inactive

**Q.** For `COc1cc2c(cc1OC)[C@H](O)[C@H](N)CCC2`, which LD50 [1] is on record?
**A.** 150 mg/kg

**Q.** What about the “Change in blood pressure” value [2] of the same compound?
**A.** inactive

**Q.** What about the ED50 (Mus musculus [4]) of the same compound?
**A.** inactive

**Q.** With `Cc1ccc2c(c1)[C@H](O)[C@@H](N)CCO2` as the compound, how does the LD50 [1] read?
**A.** 150 mg/kg

**Q.** What about the “Change in blood pressure” value [5] of the same compound?
**A.** 38 mmHg

**Q.** And the ED50 (Mus musculus [6])?
**A.** inactive

**Q.** What does the source list for `N[C@@H]1CCOc2ccccc2[C@@H]1O`?
**A.** LD50 [1]: 800 mg/kg; ED50 (Mus musculus [7]): 75 mg/kg; Change in blood pressure [5]: 44 mmHg

**Q.** For `N[C@H]1CCOc2ccccc2[C@@H]1O`, which LD50 [1] is on record?
**A.** 500 mg/kg

**Q.** And the ED50 (Mus musculus [7])?
**A.** 55 mg/kg

**Q.** And the “Change in blood pressure” value [5]?
**A.** 32 mmHg

**Q.** Which results are given for `N[C@@H]1CCCc2cc(O)c(O)cc2[C@@H]1O`?
**A.** LD50 [1]: 150 mg/kg; ED50 (Mus musculus [4]): inactive

**Q.** For `COc1ccc2c(c1)[C@H](O)[C@H](N)CCO2`, which LD50 [1] is on record?
**A.** 150 mg/kg

**Q.** What about the “Change in blood pressure” value [5] of the same compound?
**A.** 20 mmHg

**Q.** What about the ED50 (Mus musculus [6]) of the same compound?
**A.** inactive

**Q.** Which LD50 [1] does the source give for `Cc1ccc2c(c1)[C@H](O)[C@H](N)CCO2` here?
**A.** 300 mg/kg

**Q.** What about the “Change in blood pressure” value [5] of the same compound?
**A.** 10 mmHg

**Q.** What about the ED50 (Mus musculus [6]) of the same compound?
**A.** inactive

**Q.** For `COc1ccc2c(c1)[C@H](O)[C@@H](N)CCO2`, which LD50 [1] is on record?
**A.** 150 mg/kg

**Q.** And the “Change in blood pressure” value [5]?
**A.** 40 mmHg

**Q.** And the ED50 (Mus musculus [6])?
**A.** inactive

**Q.** With `Cc1cc2c(cc1C)[C@H](O)[C@H](N)CCC2` as the compound, how does the LD50 [1] read?
**A.** 150 mg/kg

**Q.** And the “Change in blood pressure” value [2]?
**A.** inactive

**Q.** And the ED50 (Mus musculus [4])?
**A.** inactive
